# Data taken from the METLIN SMRT retention time set (Domingo-Almenara et al. 2019).
# Assay: gradient 5% acetonitrile 3 min, to 50% in 2 min, to 85% in 15 min, held 3 min, 100 µL/min
# Conditions: column: Zorbax Extend-C18 2.1 x 50 mm; eluents: water / acetonitrile, 0.1% formic acid
# In short: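 Retention times of pure standards were taken from adduct peaks that were selected by computer and manually inspected. Over 3 months, mixtures of ~100 molecules were run by HPLC–quadrupole time-of-flight mass spectrometry in positive and negative ionization mode. The Zorbax Extend-C18 column (2.1 × 50 mm, 1.8 μm) ran at 100 μL/min in water and acetonitrile, each containing 0.1% formic acid, with 40 μL dead volume and 900 μL dwell volume.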
row,SMILES,RP-LC retention time
1,CCn1nnc2cc(-c3noc(-c4ccc(NC(C)=O)cc4)n3)ccc21,812 s
2,O=C(NC1CCN(Cc2ccccc2)CC1)c1cc2c(=O)n(Cc3ccccc3)ccc2s1,688 s
3,Cc1ccc(NC(=O)C2(C)Oc3cccnc3NC2=O)cc1C (stereo not drawn),760 s
4,COc1ccc(OC)c(NC(=O)C2(CCO)CCN(c3ncccn3)C2)c1 (stereo not drawn),631 s
5,COc1ccc(CN2CCc3nc(N4CCN(c5ncccn5)CC4)ncc3C2)c(OC)c1,664 s
6,Cc1nc([C@@H]2CN(C(=O)c3cccs3)C[C@H]2C(N)=O)n[nH]1,562 s
7,Cc1oc(-c2[nH]ncc2C(=O)N(C)C)cc1S(=O)(=O)Nc1cccc(F)c1,668 s
8,Cc1ccc(-c2cn3nc(N4CCCC(C(=O)N5CCOCC5)C4)sc3n2)cc1 (stereo not drawn),800 s
9,CN(C)S(=O)(=O)c1ccc(-c2nnc(C(=O)NCCC3=CCCCC3)o2)cc1,941 s
10,CC(C)CCNC(=O)N1CCN(c2cc(-c3ccccc3)ncn2)CC1,658 s
11,Cc1cc(OCC(=O)Nc2ccccc2C(F)(F)F)nc(N2CCCC(C)C2)n1 (stereo not drawn),734 s
12,O=C(Nc1ccccc1Cl)C1CN(S(=O)(=O)C2CC2)CC12CCCCC2 (stereo not drawn),1020 s
13,COc1ccc(-c2noc(-c3nnn4c3COC(c3ccc(F)cc3)C4)n2)c(OC)c1 (stereo not drawn),836 s
14,CCN1C(=O)c2cc(S(=O)(=O)Nc3cc(F)ccc3F)ccc2Oc2cccnc21,980 s
15,CC(C)c1ccc(N2C=C(C(=O)N3CCCCC3)S(=O)(=O)c3ccccc32)cc1,1040 s
16,CCCn1cc(CCNC(=O)Nc2ccc(C)cc2Cl)c2cccnc21,886 s
17,Cc1ccc(-c2nccn3cc(C(=O)N4CCN(C(C)C)CC4)nc23)cc1,620 s
18,CCC1CCCCN1C(=O)c1cnc2nc(C)ccc2c1Nc1cc(C)ccc1C (stereo not drawn),737 s
19,Cc1cccc(-c2noc(CSc3nc4cc5c(cc4c(=O)n3Cc3ccccc3)OCO5)n2)c1,1330 s
20,COc1cccc(NC(=O)Cn2c(=O)c(CCC(=O)NC3CCCC3)nc3ccccc32)c1,825 s
21,O=C(Nc1cccn2ncnc12)c1cccs1,690 s
22,O=C(NCc1ccccc1)c1cc(N2CCCC2)n2nccc2n1,951 s

row,SMILES,RP-LC retention time
1,COC(=O)C[C@@](O)(CCC(C)(C)O)C(=O)O[C@@H]1C(OC)=C[C@]23CCCN2CCc2cc4c(cc2[C@@H]13)OCO4,612 s
2,Cc1ccc(CNC(=O)CCc2ccc3cc[nH]c3c2)cc1,879 s
3,CN1CCN(CCCNC(=O)C2c3ccccc3C(=O)N(C)C2c2cccs2)CC1 (stereo not drawn),573 s
4,Cc1ccc(C)c(-n2ccn(Cc3nc(-c4ccc(C(C)(C)C)cc4)no3)c(=O)c2=O)c1,1130 s
5,COC(=O)Cn1c(C)cc(=O)n2nc(-c3cccc(C)c3)nc12,784 s
6,O=C(Nc1ccc(F)c(Cl)c1)N1CCC(N2CCN(Cc3cccc(F)c3)C(=O)C2=O)CC1,798 s
7,O=C(C1CCN(S(=O)(=O)c2ccc(-c3noc(CCC4CCCC4)n3)cc2)CC1)N1CCCC1,1190 s
8,CC(C)Cn1c(-c2cccc(C(=O)NCC3CCCO3)c2)nc2cccnc21 (stereo not drawn),699 s
9,O=C(Nc1nccs1)C1CCCN(c2ncnc3c2nc2n3CCCCC2)C1 (stereo not drawn),730 s
10,COc1ccc(-c2noc(C3CCCN3C(=O)Nc3ccccc3OC)n2)cc1 (stereo not drawn),826 s
11,Cc1ccc(CN2CC(n3c(C)cnc3-c3ccccc3)C2)s1,555 s
12,COc1ccc(S(=O)(=O)N2CCC(n3cnnc3C)CC2)cc1Cl,694 s
13,CCOc1ccccc1NS(=O)(=O)c1cc(-c2c(CC)noc2NC(C)=O)ccc1OC,840 s
14,CCOc1ccccc1NC(=O)CNC(=O)c1c[nH]c2ccccc12,729 s
15,Cc1oc2ncn(CC(=O)N3CCN(c4ccccn4)CC3)c(=O)c2c1C,565 s
16,Cc1cc(N2CCOCC2)nc(N2CCN(C(=O)c3ccc(C)c(C)c3)CC2)n1,646 s
17,Cc1ccc(-c2csc3c(=O)n(Cc4cc(=O)n5ccccc5n4)cnc23)cc1,847 s
18,COc1cccc(CNC(=O)N2c3ccccc3CC2c2nc(C3CC3)no2)c1 (stereo not drawn),775 s
19,COCCCNC(=O)N1CCCN(C2=NS(=O)(=O)C(c3ccc(C)c(C)c3)=C2C)CC1,739 s
20,Cc1cc(Nc2ccc(NC(=O)Nc3ccccc3)cc2)nc(N2CCOCC2)n1,662 s
21,Cc1cc(C)cc(C(=O)N2CCC3(CC2)NC(=O)c2ccccc2N3C)c1,804 s
22,Cc1cccc(OCc2nc(CCN(C)C(=O)NCc3ccccc3)no2)c1,832 s

row,SMILES,RP-LC retention time
1,COc1ccc(-c2c(C(=O)N(C)Cc3ccco3)nc3ccccn23)cc1,698 s
2,CCn1cc(-c2ccc(F)cc2)cc1C(=O)N1CCCCC1,1060 s
3,COCCN1C(=O)CC[C@]2(C(=O)N(C)Cc3cccnc3)CCCC[C@@H]12,544 s
4,Cc1ccc(-c2noc(C3CCCN3S(=O)(=O)c3ccc4c(c3)CCCC4)n2)cc1 (stereo not drawn),1350 s
5,CN1C(=O)C2(CCN(C(=O)Cc3cccc(F)c3)C2)c2ccccc21 (stereo not drawn),803 s
6,COC(=O)CSCC(=O)Nc1cc(C)ccc1C,729 s
7,Cc1ccc(Nc2nc(Cl)nc3ncn(C)c23)c(C)c1,791 s
8,COc1ccc(OC)c(CNC(=O)C2CCN(c3cnc4nccnc4c3)CC2)c1,680 s
9,COc1ccc(C2(C(=O)N3CCC4(CC3)CC(C)(O)CCO4)CC2)cc1 (stereo not drawn),707 s
10,C=CCn1c(C)c(CC(=O)NC(C)C)c(=O)n2nc(-c3ccccc3)nc12,733 s
11,CCCN(C)CC1(O)CCC2(CCN(C(=O)c3sccc3C)CC2)CC1,560 s
12,CCC(=O)n1nc(C)c(S(=O)(=O)N2CCOCC2)c1C,848 s
13,O=C(c1ccoc1)N1CCN(C(=O)c2nnn3c2COC(c2ccc(Cl)cc2)C3)CC1 (stereo not drawn),838 s
14,Cc1cccc(CSc2nnc3c(S(=O)(=O)N4CCCC4)cccn23)c1,883 s
15,Cc1ccccc1CCNC(=O)c1cc2n(n1)CC(C)(C(=O)NCc1ccccc1)N(C)C2=O (stereo not drawn),764 s
16,Cc1ccc(-n2cc3c(N4CCCC(C(=O)NCc5cc(F)cc(F)c5)C4)ncnc3n2)cc1 (stereo not drawn),740 s
17,Cc1ccc(CNC(=O)c2cc3c(s2)CCN(C(=O)c2ccc(F)cc2)C3)o1,847 s
18,O=C(CCn1nnc2cc(-c3noc(Cc4cccc(F)c4)n3)ccc21)N1CCCC1,855 s
19,CCN1c2ccc(C)cc2C(=O)NC12CCN(C(=O)c1ccc(F)c(Cl)c1)CC2,888 s
20,CN(C)C(=O)c1cn(-c2ccc(-c3nc(C(C)(C)C)no3)cn2)cn1,808 s
21,CN(CCc1noc(COc2ccc(F)cc2)n1)C(=O)Nc1ccc(Br)cc1,980 s
22,Cc1c(S(=O)(=O)NCc2ccccc2)c(C)n(C)c1-c1nnc(C2CCC2)o1,972 s

row,SMILES,RP-LC retention time
1,Cc1oc(-c2ccccc2)nc1Cc1noc(COc2ccccc2)n1,1090 s
2,C=CCN(Cc1nc(-c2ccc(C)cc2)no1)C(=O)Nc1ccc(C)cc1,1100 s
3,Cc1ccc(S(=O)(=O)CC(=O)Nc2nc(-c3ccc4c(c3)OCO4)cs2)cc1,924 s
4,COc1ccc(C)cc1NC(=O)C1CCN(C(=O)C(C)(C)C)CC1,784 s
5,CCOC(=O)c1cn(Cc2ccccc2)c2ccccc2c1=O,769 s
6,COc1ccccc1CC(=O)N1CCC2(CC1)N=C(c1ccc(Cl)cc1)NO2,884 s
7,COCCN1C(=O)CCc2cc(NC(=O)C(C)(C)C)ccc21,707 s
8,CCc1noc(-c2ccnc(-n3ncc(C(=O)NC4CCCC4)c3C)c2)n1,687 s
9,CCOc1ccc(-n2nnnc2CNC(=O)Nc2cccs2)cc1,722 s
10,CC(C)c1cccc(NC(=O)Cn2ncc3c(c2=O)N(C2CC2)C(=O)CS3)c1,812 s
11,Cc1ccccc1-c1ccc(N2CCN(C(=O)NC3CCCCC3)CC2)nn1,631 s
12,O=C(NCCC1=CCCCC1)C1CCN(C(=O)c2ncn3c2COC(c2ccc(F)cc2)C3)CC1 (stereo not drawn),849 s
13,CCN1C(=O)c2cccnc2Sc2cc(NC(=O)C3CC3)ccc21,685 s
14,Cc1cccc(NC(=O)C2CCN(S(=O)(=O)c3cc(-c4noc(C)n4)cs3)CC2)n1,768 s
15,Cc1noc(-c2cc(=O)n(CC(=O)Nc3ccc(Cl)cc3)c3ccccc23)n1,915 s
16,COc1ccc(C2Cn3cnc(-c4nc(-c5ccc6c(c5)OCO6)no4)c3CO2)cc1 (stereo not drawn),1000 s
17,CCOc1ccc(-c2noc(CN3C(=O)COc4ccc(Cl)cc43)n2)cc1,1130 s
18,CC(=O)Nc1c(C)nn(-c2ccccc2)c1N1CCC(C(=O)N2CCN(c3ccccn3)CC2)CC1,569 s
19,CN(CCc1noc(-c2ccc(C(=O)N3CCCCC3)cc2)n1)C(=O)c1ccc(Br)o1,782 s
20,O=C(Cn1cc2c(n1)CCCC2)N1CCC(Cc2ccccc2)CC1,965 s
21,CCN1C(=O)Cc2cc(C(=O)NCc3ccccc3)ccc21,706 s
22,O=C(O)c1cccc2c1CCN2C(=O)c1ccccc1,731 s
